Data published in patent US7947854B2, “Bis-cationic compounds and use thereof” (The University of Sydney, priority 2003, dated 2011).
In brackets after ≈: the same amount, converted by molar mass. Like-named read-outs stand apart in the source and are kept apart here.

Columns and labels:
Assay type in all cases: cell-based
T. rubrum = assay: Susceptibility of dermatophytes, broth microdilution NCCLS M38-P; details: 100% growth inhibition, 28° C.; for MIC: Trichophyton rubrum
Description: (§1) Isolates were tested using the method described in the National Committee for Clinical Laboratory Standards (NCCLS) document M38-P for filamentous fungi, with dermatophyte specific modifications described by Fernández-Torres et al, Current topics in Medical Mycology, 14-19 Feb. 1999.
(§2) Five dermatophyte isolates were, namely; T. rubrum, T. mentagrophytes, T. tonsurans, M. canis and M. gypseum, all of which produce lipases and some, phospholipase. These isolates were tested by the broth microdilution method according to NCCLS document M38-P, for activity against selected antifungal agents. In addition, ten randomly selected isolates of T. tonsurans were also tested. All isolates were maintained on SDA at 28° C. Candida parapsilosis (ATCC 20019) was used as the reference control is organism.
(§3) The microdilution plates used were a single lot of RPMI 1640 basal medium (JRH bioScience Inc. Lenexa, Kans., USA) with L-glutamine and without sodium bicarbonate, buffered to pH 7.0, at 25° C., with 0.165 M (MOPS) morpholinepropanesulfonic acid (Sigma).
(§4) Powdered drugs were dissolved in 100% dimethyl sulfoxide (DMSO), at concentrations 100 times higher than the final test concentration. All compounds were prepared in 100% (DMSO). For ITRA and TRB, two-fold drug dilutions were prepared in 100% DMSO at 100 times the final concentration, followed by further dilution 1:50 in RPMI medium, to yield 2× the final strength required for the test.
(§5) Fungal cultures were subcultured onto Potato Dextrose Agar and grown at 28° C. for 7-10 days. Fungal suspensions were covered with 5 ml of distilled water, and then colonies were scraped off with cotton tipped swabs. The resulting mixture of conidia and hyphae elements was withdrawn, transferred to a sterile tube and then vortexed with glass beads. After the particles settled, the upper homogeneous suspension was collected and its density adjusted by a densitometer to a 0.5 McFarland standard at the wavelength of 530 nm (80-85% transmittance). These stock suspensions were then diluted 1:50 with RPMI medium to obtain final working inoculum concentration ranging from 0.3×10^4 to 9×10^4 CFU/ml. Inoculum quantification was performed by plating 100 μl of the 1:1000 dilution of the adjusted inoculum on SDA plates, incubated at 28° C., and after 7 days of incubation, the colonies were counted.
(§6) Testing was based on NCCLS M38-P document for testing filamentous moulds. Testing was carried out in sterile 96-well flat bottomed microtitre plate. Columns 1 and 3 to 12 were filled with 100 μl of RPMI medium, leaving column 2 unfilled. Columns 1, 2 and 3 were filled with 100 μl of 2× drug concentration. Serial dilutions were then made by transferring 100 μl from column 3 to each column up to column 11, and 100 μl from column 11 was discarded. Column 12 served as drug free growth control. Finally, 100 μl of inoculum suspension was added to all wells except column 1, which acted as sterility control (Columns 1 and 12 served as sterility and growth control respectively). Plates were incubated at 28° C. for 7 days, and read at 3 days and 7 days of incubation. All testing was performed in duplicate, on three separate occasions.
(§7) Growth in microtitre trays were read by visual inspection by using an illuminated-reversed mirror. Growth in each well was compared with the “growth control” drug free well. The MIC end point for all the drugs was chosen to be the first well with 100% growth inhibition (i.e. the lowest drug concentration inhibiting growth).

T. tonsurans = assay: as above; details: 100% growth inhibition, 28° C.; for MIC: Trichophyton tonsurans
Description: as §1, §2, §3, §4, §5, §6, §7

M. gypseum = assay: as above; details: 100% growth inhibition, 28° C.; for MIC: Nannizzia gypsea
Description: as §1, §2, §3, §4, §5, §6, §7

T. mentagrophytes = assay: as above; details: 100% growth inhibition, 28° C.; for MIC: Trichophyton mentagrophytes
Description: as §1, §2, §3, §4, §5, §6, §7

M. canis = assay: as above; details: 100% growth inhibition, 28° C.; for MIC: Microsporum canis
Description: as §1, §2, §3, §4, §5, §6, §7

[1] = system: ten randomly selected isolates of T. tonsurans; assay: Susceptibility of ten T. tonsurans isolates, broth microdilution NCCLS M38-P; details: for MIC: Trichophyton tonsurans
Description: as §1, §2, §3, §4, §5, §6, §7

CN(C/C=C/C#CC(C)(C)C)Cc1cccc2ccccc12 [Terbinafine]
MIC Range, T. rubrum (T. rubrum): 0.007 to 0.06 µg/mL | MIC (T. rubrum; read-out: MIC GM, T. rubrum): 0.026 µg/mL (≈ 0.0892 µM) | MIC (T. rubrum; read-out: MIC Mean, T. rubrum): 0.032 µg/mL (≈ 0.11 µM) | MIC Range, T. tonsurans (T. tonsurans): 0.015 to 0.06 µg/mL | MIC (T. tonsurans; read-out: MIC GM, T. tonsurans): 0.024 µg/mL (≈ 0.0824 µM) | MIC (T. tonsurans; read-out: MIC Mean, T. tonsurans): 0.03 µg/mL (≈ 0.103 µM) | MIC Range, M. gypseum (M. gypseum): 0.015 to 0.25 µg/mL | MIC (M. gypseum; read-out: MIC GM, M. gypseum): 0.077 µg/mL (≈ 0.264 µM) | MIC (M. gypseum; read-out: MIC Mean, M. gypseum): 0.122 µg/mL (≈ 0.419 µM) | MIC Range, T. mentagrophyte (T. mentagrophytes): 0.03 to 0.06 µg/mL | MIC (T. mentagrophytes; read-out: MIC GM, T. mentagrophyte): 0.034 µg/mL (≈ 0.117 µM) | MIC (T. mentagrophytes; read-out: MIC Mean, T. mentagrophyte): 0.035 µg/mL (≈ 0.12 µM) | MIC Range, M. canis (M. canis): 0.03 µg/mL (≈ 0.103 µM) | MIC (M. canis; read-out: MIC GM, M. canis): 0.03 µg/mL (≈ 0.103 µM) | MIC (M. canis; read-out: MIC Mean, M. canis): 0.03 µg/mL (≈ 0.103 µM) | MIC Range ([1]; T. tonsurans 1): 0.015 to 0.06 µg/mL | MIC Range ([1]; T. tonsurans 2): 0.015 to 0.06 µg/mL | MIC Range ([1]; T. tonsurans 4): 0.015 to 0.06 µg/mL | MIC Range ([1]; T. tonsurans 5): 0.03 to 0.06 µg/mL | MIC Range ([1]; T. tonsurans 6): 0.03 to 0.125 µg/mL | MIC Range ([1]; T. tonsurans 7): 0.015 to 0.06 µg/mL | MIC Range ([1]; T. tonsurans 8): 0.06 to 0.125 µg/mL | MIC Range ([1]; T. tonsurans 9): 0.06 to 0.125 µg/mL | MIC Range ([1]; T. tonsurans 10): 0.015 to 0.06 µg/mL | MIC Range ([1]; T.tonsurans 3): 0.015 to 0.125 µg/mL | MIC ([1]; T. tonsurans 1, read-out: MIC GM): 0.034 µg/mL (≈ 0.117 µM) | MIC ([1]; T. tonsurans 2, read-out: MIC GM): 0.036 µg/mL (≈ 0.124 µM) | MIC ([1]; T. tonsurans 2, read-out: MIC Mean): 0.041 µg/mL (≈ 0.141 µM) | MIC ([1]; T. tonsurans 4, read-out: MIC Mean): 0.0275 µg/mL (≈ 0.0944 µM) | MIC ([1]; T. tonsurans 5, read-out: MIC GM): 0.048 µg/mL (≈ 0.165 µM) | MIC ([1]; T. tonsurans 5, read-out: MIC Mean): 0.05 µg/mL (≈ 0.172 µM) | MIC ([1]; T. tonsurans 6, read-out: MIC GM): 0.061 µg/mL (≈ 0.209 µM) | MIC ([1]; T. tonsurans 6, read-out: MIC Mean): 0.071 µg/mL (≈ 0.244 µM) | MIC ([1]; T. tonsurans 7, read-out: MIC GM): 0.038 µg/mL (≈ 0.13 µM) | MIC ([1]; T. tonsurans 7, read-out: MIC Mean): 0.045 µg/mL (≈ 0.154 µM) | MIC ([1]; T. tonsurans 8, read-out: MIC GM): 0.068 µg/mL (≈ 0.233 µM) | MIC ([1]; T. tonsurans 8, read-out: MIC Mean): 0.07 µg/mL (≈ 0.24 µM) | MIC ([1]; T. tonsurans 9, read-out: MIC GM): 0.077 µg/mL (≈ 0.264 µM) | MIC ([1]; T. tonsurans 9, read-out: MIC Mean): 0.081 µg/mL (≈ 0.278 µM) | MIC ([1]; T. tonsurans 10, read-out: MIC Mean): 0.035 µg/mL (≈ 0.12 µM) | MIC ([1]; T.tonsurans 3, read-out: MIC GM): 0.038 µg/mL (≈ 0.13 µM) | MIC ([1]; T.tonsurans 3, read-out: MIC Mean): 0.051 µg/mL (≈ 0.175 µM) | MIC ([1]; read-out: MIC Mean, T. tonsurans 1): 0.037 µg/mL (≈ 0.127 µM)
